Results reported in US8722704B2, “Modulators of ATP-binding cassette-transporters” (Vertex Pharmaceuticals Incorporated, priority 2007, dated 2014).

Molecular target: T1, ΔF508-CFTR (Homo sapiens, UniProt P13569, DEL508-508)
T1 construct: expressed in transfected cells
Test: Assays for detecting and measuring ΔF508-CFTR correction properties (membrane potential optical assay; Table 3 does not say which assay)
Assay type: cell-based
Details: IC50/EC50 bins; NIH3T3 mouse fibroblasts stably expressing ΔF508-CFTR; read-out: Binned EC50
Excerpt: The optical membrane potential assay utilized voltage-sensitive FRET sensors described by Gonzalez and Tsien (See Gonzalez, J. E. and R. Y. Tsien (1995) “Voltage sensing by fluorescence resonance energy transfer in single cells” Biophys J 69(4): 1272-80, and Gonzalez, J. E. and R. Y. Tsien (1997) “Improved indicators of cell membrane potential that use fluorescence resonance energy transfer” Chem Biol 4(4): 269-77) in combination with instrumentation for measuring fluorescence changes such as the Voltage/Ion Probe Reader (VIPR) (See Gonzalez, J. E., K. Oades, et al. (1999) “Cell-based assays and instrumentation for screening ion-channel targets” Drug Discov Today 4(9): 431-439).
These voltage sensitive assays are based on the change in fluorescence resonant energy transfer (FRET) between the membrane-soluble, voltage-sensitive dye, DiSBAC2(3), and a fluorescent phospholipid, CC2-DMPE, which is attached to the outer leaflet of the plasma membrane and acts as a FRET donor. Changes in membrane potential (Vm) cause the negatively charged DiSBAC2(3) to redistribute across the plasma membrane and the amount of energy transfer from CC2-DMPE changes accordingly. The changes in fluorescence emission were monitored using VIPR™ II, which is an integrated liquid handler and fluorescent detector designed to conduct cell-based screens in 96- or 384-well microtiter plates.
To identify small molecules that correct the trafficking defect associated with ΔF508-CFTR; a single-addition HTS assay format was developed. The cells were incubated in serum-free medium for 16 hrs at 37° C. in the presence or absence (negative control) of test compound. As a positive control, cells plated in 384-well plates were incubated for 16 hrs at 27° C. to “temperature-correct” ΔF508-CFTR. The cells were subsequently rinsed 3× with Krebs Ringers solution and loaded with the voltage-sensitive dyes. To activate ΔF508-CFTR, 10 μM forskolin and the CFTR potentiator, genistein (20 μM), were added along with Cl^−-free medium to each well. The addition of Cl^−-free medium promoted Cl^− efflux in response to ΔF508-CFTR activation and the resulting membrane depolarization was optically monitored using the FRET-based voltage-sensor dyes. […]
3. Solutions • Bath Solution #1: (in mM) NaCl 160, KCl 4.5, CaCl2 2, MgCl2 1, HEPES 10, pH 7.4 with NaOH. • Chloride-free bath solution: Chloride salts in Bath Solution #1 are substituted with gluconate salts. • CC2-DMPE: Prepared as a 10 mM stock solution in DMSO and stored at −20° C. • DiSBAC2(3): Prepared as a 10 mM stock in DMSO and stored at −20° C.
NIH3T3 mouse fibroblasts stably expressing ΔF508-CFTR are used for optical measurements of membrane potential. The cells are maintained at 37° C. in 5% CO2 and 90% humidity in Dulbecco's modified Eagle's medium supplemented with 2 mM glutamine, 10% fetal bovine serum, 1×NEAA, β-ME, 1×pen/strep, and 25 mM HEPES in 175 cm^2 culture flasks. For all optical assays, the cells were seeded at 30,000/well in 384-well matrigel-coated plates and cultured for 2 hrs at 37° C. before culturing at 27° C. for 24 hrs for the potentiator assay. For the correction assays, the cells are cultured at 27° C. or 37° C. with and without compounds for 16-24 hours.

T1 sequence (P13569 with tags, fused parts or gaps DEL508-508): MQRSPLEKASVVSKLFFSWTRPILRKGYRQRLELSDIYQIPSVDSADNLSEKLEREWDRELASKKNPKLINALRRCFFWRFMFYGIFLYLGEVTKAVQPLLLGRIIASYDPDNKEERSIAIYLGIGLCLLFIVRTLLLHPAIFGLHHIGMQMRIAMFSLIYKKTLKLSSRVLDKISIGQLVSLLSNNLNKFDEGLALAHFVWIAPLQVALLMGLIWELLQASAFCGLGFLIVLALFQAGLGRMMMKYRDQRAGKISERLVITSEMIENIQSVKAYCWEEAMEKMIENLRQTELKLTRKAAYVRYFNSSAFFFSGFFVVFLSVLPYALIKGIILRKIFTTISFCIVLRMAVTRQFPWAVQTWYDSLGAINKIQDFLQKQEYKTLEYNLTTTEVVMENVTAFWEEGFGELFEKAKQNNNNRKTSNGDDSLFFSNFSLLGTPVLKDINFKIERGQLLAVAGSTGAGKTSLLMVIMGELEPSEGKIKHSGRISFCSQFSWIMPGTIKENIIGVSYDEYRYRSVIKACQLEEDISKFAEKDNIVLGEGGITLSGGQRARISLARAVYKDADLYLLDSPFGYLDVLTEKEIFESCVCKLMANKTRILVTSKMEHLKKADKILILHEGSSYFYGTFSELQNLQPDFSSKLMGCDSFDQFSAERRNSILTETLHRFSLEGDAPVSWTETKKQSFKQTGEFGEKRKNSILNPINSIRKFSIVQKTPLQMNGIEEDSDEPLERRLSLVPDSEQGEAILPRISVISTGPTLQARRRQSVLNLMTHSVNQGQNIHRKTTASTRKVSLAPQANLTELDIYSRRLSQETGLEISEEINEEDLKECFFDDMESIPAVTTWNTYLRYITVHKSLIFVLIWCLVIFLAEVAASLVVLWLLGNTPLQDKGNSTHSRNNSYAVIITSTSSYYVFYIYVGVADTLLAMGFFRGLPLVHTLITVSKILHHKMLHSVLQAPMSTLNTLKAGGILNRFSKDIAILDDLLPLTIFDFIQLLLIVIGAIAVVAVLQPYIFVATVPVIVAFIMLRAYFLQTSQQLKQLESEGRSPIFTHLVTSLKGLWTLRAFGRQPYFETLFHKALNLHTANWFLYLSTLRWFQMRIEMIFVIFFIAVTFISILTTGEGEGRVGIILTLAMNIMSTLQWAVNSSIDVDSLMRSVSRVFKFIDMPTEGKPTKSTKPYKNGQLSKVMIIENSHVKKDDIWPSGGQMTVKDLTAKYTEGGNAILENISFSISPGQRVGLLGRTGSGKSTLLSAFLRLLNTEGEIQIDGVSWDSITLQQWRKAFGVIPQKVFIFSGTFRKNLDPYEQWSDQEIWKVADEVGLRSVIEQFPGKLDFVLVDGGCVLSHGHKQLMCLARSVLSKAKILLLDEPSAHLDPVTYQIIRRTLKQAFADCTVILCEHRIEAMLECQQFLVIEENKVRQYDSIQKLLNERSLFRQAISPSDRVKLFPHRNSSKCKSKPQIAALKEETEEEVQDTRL

- EC50: ≤ 2000 nM
Structure (SMILES): C[N+](C)(C)CCOC(=O)c1cccc(-c2nc(NC(=O)C3(c4ccc5c(c4)OC(F)(F)O5)CC3)cc3ccccc23)c1 [Compound 28, 2-(3-(3-(1-(2,2-Difluorobenzo[d][1,3]dioxol-5-yl)cyclopropanecarboxamido)isoquinolin-1-yl)benzoyloxy)-N,N,N-trimethylethanaminium chloride]
